Series [1] is described as follows: In-vivo pharmacokinetic test in rats after intragastric administration. As to conditions: SD rats; for AUC(0-t) / Cmax / MRT last / Tmax / half-life: rat, po, 46.7 umol/kg, 20% Solutol, plasma. How it is done:
Blood was collected before administration and 0.25 h, 0.5 h, 1 h, 2 h, 3 h, 4 h, 6 h, 8 h, 12 h and 24 h after administration, respectively and placed in a heparinized EP tube, and the plasma was centrifugally separated. After the plasma was pre-treated, the concentrations of compounds in the plasma were determined by LC-MS/MS, and the pharmacokinetic parameters were calculated.

The target in series [2] is T1, 5-HT2A receptor (Homo sapiens (Human), UniProt P28223). The series is described as follows: Screening for 5-HT2A inverse agonistic activity (NIH3T3-5-HT2A R cells, Bright-Glo luciferase, 120 h). The series is classed as cell-based. The conditions noted are these: NIH3T3-5HT2AR cells, cell inhibition rate. How it is done:
• Cell lines: Adherent cells NIH3T3-5-HT2A R • Cell culture medium: DMEM+10% FBS (purchased from GBICO) • Cell culture plate: White-wall clear-bottom 96-well plate (purchased from Perkin Elmer) • Detection kit: Bright-Glo™ Luciferase (purchased from Promega) • Detection instrument: BioTek multifunctional microplate reader
NIH3T3-5HT2AR cells in the logarithmic growth phase were seeded into a white-wall clear-bottom 96-well plate at a density of 1000 cells per well, and cultured overnight in a 37° C., 5% CO2 incubator. […] On the sixth day, a Bright-Glo™ Luciferase reagent with a volume equal to that of cell sap was added to the cells, and the cells were incubated at room temperature in the dark for 20 min. […] The data was processed with GraphPad Prism 7.0 to obtain a cell inhibition rate curve, and the IC50 was calculated.
Cell inhibition rate (%)=[100−(Lum test drug−Lum culture solution)/(Lum cell control−Lum culture solution)×100]%

Series [3] in a line: In-vitro stability in dog liver microsomes. Type of series: in vitro ADME. As to conditions: for Remaining amount 60 min later: Dog liver microsomes 0.5 mg/mL, 1 μM, NADPH 1 mM. How it is done:
(§1) • 1) formulation of test sample working solution: the test sample was diluted to 100 μM with methanol; • 2) formulation of liver microsome working solution: liver microsomes were diluted to 0.56 mg/ml with a 100 mM phosphate buffer; • 3) formulation of reduced nicotinamide adenine dinucleotide phosphate (NADPH) working solution: an appropriate amount of NADPH was weighted and diluted to 20 mM with a phosphate buffer, and then a 60 mM MgCl2 solution with the equal volume was added; • 4) formulation of stop solution: tolbutamide was diluted to 20 ng/mL with acetonitrile to serve as a stop solution containing an internal standard.
(§2) The remaining percentage of the test sample was tested 60 min later.

Series [4] deals with hERG potassium channels (Homo sapiens (Human), UniProt Q12809). As to the kind of experiment: hERG inhibitory activity, whole-cell patch clamp in CHO-hERG cells. The conditions noted are these: read-out: hERG inhibitory activity IC50; CHO-hERG cells, whole-cell patch clamp, tail current at -50 mV. Background: hERG is a cardiac potassium channel; its block is linked to QT prolongation.
hERG potassium channels, sequence (Q12809 whole entry): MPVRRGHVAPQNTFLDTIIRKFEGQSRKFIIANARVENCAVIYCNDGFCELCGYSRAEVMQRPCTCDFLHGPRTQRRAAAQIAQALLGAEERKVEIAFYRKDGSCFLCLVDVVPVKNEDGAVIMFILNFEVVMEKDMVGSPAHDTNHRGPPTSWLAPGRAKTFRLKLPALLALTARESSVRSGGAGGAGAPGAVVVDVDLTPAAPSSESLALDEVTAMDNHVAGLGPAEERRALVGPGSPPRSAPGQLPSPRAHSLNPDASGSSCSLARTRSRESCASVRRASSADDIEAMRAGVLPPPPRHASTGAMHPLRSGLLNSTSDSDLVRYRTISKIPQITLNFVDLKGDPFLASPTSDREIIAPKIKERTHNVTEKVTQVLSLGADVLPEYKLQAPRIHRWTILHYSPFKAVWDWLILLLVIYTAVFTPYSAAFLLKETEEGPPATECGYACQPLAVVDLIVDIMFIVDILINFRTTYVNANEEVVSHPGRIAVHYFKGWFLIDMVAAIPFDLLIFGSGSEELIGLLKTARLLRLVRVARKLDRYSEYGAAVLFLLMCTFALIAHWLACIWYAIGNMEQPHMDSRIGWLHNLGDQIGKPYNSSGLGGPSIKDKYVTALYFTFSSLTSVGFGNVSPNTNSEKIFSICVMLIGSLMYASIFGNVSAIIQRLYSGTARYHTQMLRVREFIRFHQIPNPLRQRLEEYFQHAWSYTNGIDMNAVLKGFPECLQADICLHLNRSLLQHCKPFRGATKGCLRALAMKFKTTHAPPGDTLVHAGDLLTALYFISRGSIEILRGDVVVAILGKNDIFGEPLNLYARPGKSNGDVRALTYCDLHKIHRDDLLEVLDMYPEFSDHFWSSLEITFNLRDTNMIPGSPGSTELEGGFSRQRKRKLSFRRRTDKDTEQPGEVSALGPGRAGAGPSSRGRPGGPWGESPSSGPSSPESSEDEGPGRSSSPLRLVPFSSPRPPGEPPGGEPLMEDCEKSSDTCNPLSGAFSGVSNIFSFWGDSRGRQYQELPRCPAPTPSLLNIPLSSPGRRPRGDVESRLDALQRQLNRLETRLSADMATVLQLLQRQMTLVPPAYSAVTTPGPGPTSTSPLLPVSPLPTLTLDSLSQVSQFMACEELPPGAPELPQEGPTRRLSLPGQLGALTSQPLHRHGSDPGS
Experimental: • Name: Dimethyl sulfoxide (DMSO)
• Species & strains: CHO-hERG cell lines (Chinese hamster ovary cells stably expressing hERG channels) • Culture medium: 90% F12, 10% fetal bovine serum, 100 μg/mL G418 and 100 μg/mL hygromycin B • Culture conditions: 5% CO2, 37° C. incubator • Freezing conditions: Liquid nitrogen
Digestion was performed at room temperature for 3-5 min. The digestion solution was pipetted, and the cells were resuspended in extracellular fluid and transferred to an experimental dish for electrophysiological recording for later use.
On the day of the test, the compound was diluted with DMSO to an intermediate concentration. 10 μL of compound with the intermediate concentration was taken, transferred to 4990 μL of extracellular fluid, and subjected to 500-fold dilution to obtain a final concentration to be tested.
CHO (Chinese Hamster Ovary) cells stably expressing hERG potassium channels were taken, and hERG potassium channel currents were recorded at room temperature by means of a whole-cell patch-clamp technique. A glass microelectrode was formed by pulling a glass electrode blank (BF150-86-10, Sutter) with a glass microelectrode puller. The tip resistance was about 2-5 MΩ after perfusion of a pippette solution. The glass microelectrode could be connected to a patch clamp amplifier by inserting the glass microelectrode into an amplifier probe. Clamping voltages and data recording were controlled and recorded by a computer with pClamp 10 software, with a sampling frequency of 10 kHz and a filtering frequency of 2 kHz. After the whole-cell recording was obtained, the cells were clamped at −80 mV, and the step voltage evoking hERG potassium current (I hERG) was changed from −80 mV to +20 mV by giving a 2 s depolarization voltage and then repolarized to −50 mV for 1 s, and returned to −80 mV. Such voltage stimulation was given every 10 s, and the administration process was started after it was determined that the hERG potassium currents were stable (1 min). The compound at each test concentration was given at least 1 min, and at least 2 cells (n≥2) were tested for each concentration.
Data analysis was performed by means of pClamp 10 and GraphPad Prism 5.0 software.
The formula for calculating the degree of inhibition of different compound concentrations on hERG potassium currents (the hERG tail current peak value evoked at −50 mV) was:
Y=Bottom+(Top−Bottom)/(1+10^((LogIC50−X)*HillSlope))
wherein X is a Log value of a test concentration of a test sample, Y is the inhibition percentage at a corresponding concentration, and Bottom and Top are the minimum inhibition percentage and the maximum inhibition percentage, respectively.

The target in series [5] is T1, 5-HT2A receptor. As to the kind of experiment: Test for 5-HT2A antagonistic activity (calcium ion antagonism, FLIPR, CHO-K1/5-HT2A cells). Type of series: cell-based. The conditions noted are these: 100 nM a-methyl-5-HT, Ca2+ signal. Here is the method: • Cell lines: CHO-K1/5-HT2A (Chempartner) • Cell culture medium: DMEM/F12+10% FBS (purchased from GBICO) • Cell culture plate: 384-well Assay Plate (purchased from Corning) • Detection kit: FLIPR® Calcium 4 Assay Kit (purchased from Molecular Devices)
After that, centrifugation was performed to remove the culture medium in the cell culture plate. Dye was added, and the cells were incubated in a 37° C., 5% CO2 incubator for another 1 h. The cell culture plate was placed on the FLIPR. A compound to be tested was added, and the Ca^2+ signal was detected, wherein the compound to be tested was subjected to 3-fold gradient dilution with PBS to obtain 10 concentrations, with the highest concentration of 10 uM, and double replicate wells were set up. […] In order to determine the test stability, risperidone was used as a positive control. The data were processed with GraphPad Prism 7.0 to obtain a cell inhibition rate curve, and the IC50 was calculated.
Inhibition rate (%)=100%−[(signal value of the compound to be tested−signal value of the test solution)/(the maximum signal value−the signal value of the test solution)]×100%

The nature of series [6]: In-vitro stability in human liver microsomes. Type of series: in vitro ADME. As to conditions: for Remaining amount 60 min later: Human liver microsomes 0.5 mg/mL, 1 μM, NADPH 1 mM. How it is done: as §1, §2
In general terms: Microsomes from liver hold many membrane-bound enzymes, among them those of drug oxidation.

Each structure is given as a SMILES string.

T1 sequence (P28223 whole entry): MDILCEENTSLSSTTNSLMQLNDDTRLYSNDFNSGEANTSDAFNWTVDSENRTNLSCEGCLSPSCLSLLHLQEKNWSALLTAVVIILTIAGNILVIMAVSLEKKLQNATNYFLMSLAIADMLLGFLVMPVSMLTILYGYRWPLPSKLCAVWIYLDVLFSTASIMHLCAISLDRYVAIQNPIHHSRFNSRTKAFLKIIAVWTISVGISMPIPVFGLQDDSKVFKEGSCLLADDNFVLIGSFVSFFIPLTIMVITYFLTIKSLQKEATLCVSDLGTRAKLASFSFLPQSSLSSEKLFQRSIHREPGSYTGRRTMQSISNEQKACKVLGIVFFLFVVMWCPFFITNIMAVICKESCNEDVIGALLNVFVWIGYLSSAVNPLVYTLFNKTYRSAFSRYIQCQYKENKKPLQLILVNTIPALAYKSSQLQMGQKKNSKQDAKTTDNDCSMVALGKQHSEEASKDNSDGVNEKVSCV

Regarding `CN1CCC(N(Cc2ccc(F)cn2)C(=O)NCc2ccc(OCC(F)(F)F)cc2)CC1` [Compound 59], in series [1] (46.7 μmol/kg), the “AUClast relative to pimavanserin” value is recorded as 4 times, the “Cmax relative to pimavanserin” value is reported as 2 times and the “T1/2 compared with pimavanserin” value is reported as “higher than that of pimavanserin”. Further, in series [1], the AUC(0-t) (in general, the area under the concentration-time curve up to a stated or last time point) is 17 ± 2.97 µM·h; the highest concentration (Cmax) (in general, the maximum level reached in the sampled fluid or tissue) came to 1140 ± 365 nM; the MRT last (usually the average time that molecules of a dose stay in the body) turned out to be 8.66 ± 0.89 h; the Tmax (in general, the time from dosing to the highest level) was found to be 5.88 ± 5.14 h. For the same compound, the half-life (commonly the time needed for the level to fall by half in the phase considered) in series [1] was 5.51 ± 1.33 h. Moreover, in series [2], the IC50 (in general, the concentration at which inhibition is half-maximal) came to 2.04 nM. Also, the “Remaining amount 60 min later” value in series [3] is on record as 76.37%. Also, the “Stability compared with pimavanserin” value in series [3] (dog liver microsomes in vitro) was “obviously superior stability to that of pimavanserin”. The IC50 in series [4] is 810 nM. For the same compound, the IC50 in series [5] turned out to be 0.54 nM. Further, the “Remaining amount 60 min later” value in series [6] is 89.19%. In addition, in series [6] (human liver microsomes in vitro), the “Stability compared with pimavanserin” value is on record as “obviously superior stability to that of pimavanserin”.

On to `CC(C)COc1ccc(CNC(=O)N(Cc2ccc(F)cc2)C2CCN(C)CC2)cc1` [Pimavanserin, reference compound], for which, in series [1], the exposure AUC(0-t) came out at 4.29 ± 1.66 µM·h, the Cmax amounted to 536 ± 260 nM, the MRT last was 5.61 ± 0.34 h and the Tmax worked out at 2.75 ± 1.26 h. Moreover, the half-life in series [1] is 2.38 ± 0.8 h. Further, in series [3], the “Remaining amount 60 min later” value came out at 29.72%. The “Remaining amount 60 min later” value in series [6] turned out to be 77.44%.

Turning to `CC(C)C1Cc2cc(CNC(=O)N(Cc3ccc(F)cn3)C3CCN(C)CC3)ccc2O1` (stereo not shown) [Compound 41], the IC50 came out at 4.29 nM in series [2], 790 nM in series [4] and 9.98 nM in series [5].

For `CC(C)COc1ccc(CNC(=O)N(Cc2ccc(F)cn2)C2CCN(C)CC2)cc1` [Compound 1], the 50% inhibitory concentration (IC50) was 22.8 nM in series [2], 410 nM in series [4] and 8.64 nM in series [5].

For `CN1CCC(N(Cc2ccc(F)cn2)C(=O)NCc2ccc(OCCCC(F)(F)F)cc2)CC1` [Compound 82], the half-maximal inhibitory concentration (IC50) in series [2] was found to be 1.95 nM; in series [4], 500 nM; in series [5], 3.78 nM.

In the case of `CN1CCC(N(Cc2ccc(F)cn2)C(=O)NCc2ccc(OCCCCF)cc2)CC1` [Compound 62], the IC50 in series [2] was determined as 32.8 nM; in series [4] it was 1430 nM; in series [5], 2.35 nM.

(Values after patent US20230348421A1, “5-HT2A RECEPTOR INHIBITOR OR INVERSE AGONIST, PREPARATION METHOD THEREFOR, AND APPLICATION THEREOF” (GENEORA PHARMA (SHIJIAZHUANG) CO., LTD., priority 2020, published 2023).)
